The values below come from US11382871B2 (BRIU GmbH, priority 2012, dated 2022).

In one series the test system is IKK. As to conditions: cited from earlier work.
For series [1] the following is noted: compared with curcumin; cited from earlier work.
Another series deals with cell death. Conditions: compared with curcumin; cited from earlier work.
A further series relates to tumor. As to conditions: compared with Cisplatin; cited from earlier work.
For series [2] the following is noted: compared with curcumin; cited from earlier work. The source holds these as a separate data set.
The conditions of series [3]: compared with Cisplatin; cited from earlier work.
For series [4] the following is noted: cited from earlier work; for Solubility: solvents as named in the cell, in water, hexane, ether.
Another series concerns plasma protein. The series is described as follows: Behaviour of curcumin in the blood stream (plasma protein binding). Conditions: higher physiological pH of blood. It counts as in vitro ADME. The text has this: Since the hydroxyl groups are present in undissociated form when the pH is acidic, the curcuminoids' stability is greater in this environment.

Like-named read-outs stand apart in the source and are kept apart here.

Consider `Cl.O=C1/C(=C/c2ccccc2F)CNC/C1=C\c1ccccc1F` [EF-24], for which, in the series with IKK, the IKK inhibition result is “IKK inhibitor”. The “Potency relative to curcumin” value in series [1] is “more potent than curcumin”. Further, the “Potency in inducing cell death relative to curcumin” value with cell death is 10 times. Also, the “Effectiveness in anti-tumor screening” value with tumor is on record as “more effective than Cisplatin”. In addition, in series [2], the Bioavailability result is listed as “considerably higher bioavailability”. Also, in series [3], the “Potential of inducing adverse effects” value is reported as “significantly lower potential of inducing adverse effects”.

For the compound `COc1cc(/C=C/C(=O)CC(=O)/C=C/c2ccc(O)cc2)ccc1O` [Demethoxy-CUR, 4-Hydroxycinnamoyl feruloyl methane], in series [4], the Solubility result is listed as “Insoluble in water, hexane, ether;”.

With `O=C(/C=C/c1ccc(O)cc1)CC(=O)/C=C/c1ccc(O)cc1` [Bisdemethoxy-CUR, Bis-4-hydroxycinnamoyl methane], in series [4], the Solubility result is recorded as “Insoluble in water, hexane, ether;”.

As for `COc1cc(/C=C/C(=O)CC(=O)/C=C/c2ccc(O)c(OC)c2)ccc1O` [curcumin, Diferuloylmethane], in the series on plasma protein, the “Plasma protein binding on entering the blood stream” value is given as “binds to plasma protein”. In series [4] (listed as CUR), the Solubility result was “Insoluble in water, hexane, ether;”. The Solubility in water entry in series [4] (water) is reported as “insoluble in water”.
